Assay results as given in patent US10526345B2, “Compounds as GPR119 agonists” (Mankind Pharma Ltd., priority 2016, dated 2020).

The molecules below were run against T1, hGPR119 (Homo sapiens, UniProt Q8TDV5) (assay: In vitro cyclic AMP assay (Cisbio dynamic 2 HTRF kit) in CHO-hGPR119 cells). Details: 1 h, cAMP, compound at 1 μM, 60 min, read-out: Induction (% induction at 1 μM).
T1 construct: expressed in transfected cells; host or cells: CHO
T1 sequence (Q8TDV5 1-335): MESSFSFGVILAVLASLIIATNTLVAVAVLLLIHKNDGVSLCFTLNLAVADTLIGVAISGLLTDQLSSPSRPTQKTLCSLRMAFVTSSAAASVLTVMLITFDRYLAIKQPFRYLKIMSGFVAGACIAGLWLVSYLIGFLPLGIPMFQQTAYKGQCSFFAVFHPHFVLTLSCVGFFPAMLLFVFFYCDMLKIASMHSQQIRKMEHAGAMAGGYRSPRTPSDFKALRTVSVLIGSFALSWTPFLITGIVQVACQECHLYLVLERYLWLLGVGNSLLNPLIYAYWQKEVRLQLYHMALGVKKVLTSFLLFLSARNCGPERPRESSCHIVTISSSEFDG
Format: cell-based

activation at 1 µM [%] | Structure (SMILES)
50 | Cc1cc(-c2ccc3nc(OC(C)C4CCN(c5nc(C(C)C)no5)CC4)sc3n2)ccn1 (centres unmarked) [Compound 1123, 3-isopropyl-5-(4-(1-((5-(2-methylpyridin-4-yl)thiazolo[5,4-b]pyridin-2-yl)oxy)ethyl)piperidin-1-yl)-1,2,4-oxadiazole]
0 | CC(Oc1nc2ccc(-c3ccc(S(C)(=O)=O)cc3)nc2s1)C1CCN(S(=O)(=O)C2CC2)CC1 (centres unmarked) [Compound 1109, 2-(1-(1-(cyclopropylsulfonyl)piperidin-4-yl)ethoxy)-5-(4-(methylsulfonyl)phenyl)thiazolo[5,4-b]pyridine]
19 | CC(C)OC(=O)N1CC=C(c2nc3ccc(-c4ccc(S(C)(=O)=O)cc4)nc3s2)CC1 [Compound 1011, isopropyl 4-(5-(4-(methylsulfonyl)phenyl)thiazolo[5,4-b]pyridin-2-yl)-5,6-dihydropyridine-1(2H)-carboxylate]
50 | CC(C)c1noc(N2CCC(C(C)Oc3nc4ccc(-c5ccn(C)c(=O)c5)nc4s3)CC2)n1 (centres unmarked) [Compound 1127, 4-(2-(1-(1-(3-isopropyl-1,2,4-oxadiazol-5-yl)piperidin-4-yl)ethoxy)thiazolo[5,4-b]pyridin-5-yl)-1-methylpyridin-2(1H)-one]
18 | Cc1cc(-c2ccc(S(C)(=O)=O)cc2)nc2sc(OC(C)C3CCN(c4nc(C(C)C)no4)CC3)nc12 (centres unmarked) [Compound 1037, 3-isopropyl-5-(4-(1-((7-methyl-5-(4-(methylsulfonyl)phenyl)thiazolo[5,4-b]pyridin-2-yl)oxy)ethyl)piperidin-1-yl)-1,2,4-oxadiazole]
80 | CC(C)c1noc(N2CCC(C(C)Oc3nc4ccc(-c5cnc(S(C)(=O)=O)cn5)nc4s3)CC2)n1 (centres unmarked) [Compound 1158, 2-(1-(1-(3-isopropyl-1,2,4-oxadiazol-5-yl)piperidin-4-yl)ethoxy)-5-(5-(methylsulfonyl)pyrazin-2-yl)thiazolo[5,4-b]pyridine]
29 | COCCNS(=O)(=O)c1ccc(-c2ccc3nc(N4CCC(c5nc(C(C)C)no5)CC4)sc3n2)cc1 [Compound 1073, 4-(2-(4-(3-isopropyl-1,2,4-oxadiazol-5-yl)piperidin-1-yl)thiazolo[5,4-b]pyridin-5-yl)-N-(2-methoxyethyl)benzenesulphonamide]
84 | CC(C)c1noc(N2CCC([C@H](C)Oc3nc4ccc(-c5ccc(S(=O)(=O)C6CC6)cc5)nc4s3)CC2)n1 [Compound 1095, (S)-5-(4-(1-((5-(4-(cyclopropylsulfonyl)phenyl)thiazolo[5,4-b]pyridin-2-yl)oxy)ethyl)piperidin-1-yl)-3-isopropyl-1,2,4-oxadiazole]
12 | CC(C)c1nsc(N2CCC(C(C)Oc3nc4ccc(-c5ccc(S(C)(=O)=O)cc5)nc4s3)CC2)n1 (centres unmarked) [Compound 1107, 2-(1-(1-(3-isopropyl-1,2,4-thiadiazol-5-yl)piperidin-4-yl)ethoxy)-5-(4-(methylsulfonyl)phenyl)thiazolo[5,4-b]pyridine]
81 | Cc1cnc(N2CCC(C(C)Oc3nc4ccc(-c5ccc(S(C)(=O)=O)nc5)nc4s3)CC2)nc1 (centres unmarked) [Compound 1157, 2-(1-(1-(5-methylpyrimidin-2-yl)piperidin-4-yl)ethoxy)-5-(6-(methylsulfonyl)pyridin-3-yl)thiazolo[5,4-b]pyridine]
65 | CC(=O)N(C)c1ncc(-c2ccc3nc(OC(C)C4CCN(c5nc(C(C)C)no5)CC4)sc3n2)cn1 (centres unmarked) [Compound 1139, N-(5-(2-(1-(1-(3-isopropyl-1,2,4-oxadiazol-5-yl)piperidin-4-yl)ethoxy)thiazolo[5,4-b]pyridin-5-yl)pyrimidin-2-yl)-N-methylacetamide]
3 | CCc1cnc(N2CCN(c3nc4ccc(-c5ccc(S(C)(=O)=O)cc5)nc4s3)CC2)nc1 [Compound 1008, 2-(4-(5-ethylpyrimidin-2-yl)piperazin-1-yl)-5-(4-(methylsulfonyl)phenyl)thiazolo[5,4-b]pyridine]
61 | CC(C)c1noc(N2CCC(C(C)Oc3nc4ccc(-c5ccc(N6CCCC6=O)nc5)nc4s3)CC2)n1 (centres unmarked) [Compound 1146, 1-(5-(2-(1-(1-(3-isopropyl-1,2,4-oxadiazol-5-yl)piperidin-4-yl)ethoxy)thiazolo[5,4-b]pyridin-5-yl)pyridin-2-yl)pyrrolidin-2-one]
73 | CC(Oc1nc2ccc(-c3ccc(S(C)(=O)=O)nc3)nc2s1)C1CCN(c2ncc(C3CC3)cn2)CC1 (centres unmarked) [Compound 1137, 2-(1-(1-(5-cyclopropylpyrimidin-2-yl)piperidin-4-yl)ethoxy)-5-(6-(methylsulfonyl)pyridin-3-yl)thiazolo[5,4-b]pyridine]
76 | CCc1cnc(N2CCC(C(C)Oc3nc4ccc(-c5ccc(S(C)(=O)=O)cc5)nc4s3)CC2)nc1 (centres unmarked) [Compound 1055, 2-(1-(1-(5-ethylpyrimidin-2-yl)piperidin-4-yl)ethoxy)-5-(4-(methylsulfonyl)phenyl)thiazolo[5,4-b]pyridine]
8 | CCc1cnc(N2CCN(c3nc4ccc(Oc5ccc(S(C)(=O)=O)cc5)nc4s3)CC2)nc1 [Compound 1010, 2-(4-(5-ethylpyrimidin-2-yl)piperazin-1-yl)-5-(4-(methylsulfonyl)phenoxy)thiazolo[5,4-b]pyridine]
45 | CC(C)c1noc(C2CCN(c3nc4ccc(-c5ccc(S(C)(=O)=O)cc5)nc4s3)CC2)n1 [Compound 1004, 3-isopropyl-5-(1-(5-(4-(methylsulfonyl)phenyl)thiazolo[5,4-b]pyridin-2-yl)piperidin-4-yl)-1,2,4-oxadiazole]
10 | CC(C)c1noc(N2CC[C@@H](COc3nc4ccc(-c5ccc(S(C)(=O)=O)cc5)nc4s3)[C@@H](F)C2)n1 [Compound 1128, 5-((3R,4S)-3-fluoro-4-(((5-(4-(methylsulfonyl)phenyl)thiazolo[5,4-b]pyridin-2-yl)oxy)methyl)piperidin-1-yl)-3-isopropyl-1,2,4-oxadiazole]
31 | CC(C)c1noc(N2CCC(COc3nc4ccc(-c5ccc(S(C)(=O)=O)cc5)nc4s3)CC2)n1 [Compound 1006, 3-isopropyl-5-(4-(((5-(4-(methylsulfonyl)phenyl)thiazolo[5,4-b]pyridin-2-yl)oxy)methyl)piperidin-1-yl)-1,2,4-oxadiazole]
55 | CC(C)c1noc(N2CCC([C@H](C)Oc3nc4ccc(-c5cnc(S(C)(=O)=O)nc5)nc4s3)CC2)n1 [Compound 1133, 2-((S)-1-(1-(3-isopropyl-1,2,4-oxadiazol-5-yl)piperidin-4-yl)ethoxy)-5-(2-(methylsulfonyl)pyrimidin-5-yl)thiazolo[5,4-b]pyridine]
20 | Cc1cc2nc(OC(C)C3CCN(c4nc(C(C)C)no4)CC3)sc2nc1-c1ccc(S(C)(=O)=O)cc1 (centres unmarked) [Compound 1039, 3-isopropyl-5-(4-(1-((6-methyl-5-(4-(methylsulfonyl)phenyl)thiazolo[5,4-b]pyridin-2-yl)oxy)ethyl)piperidin-1-yl)-1,2,4-oxadiazole]
48 | CC(C)c1noc(N2CCC(C(Oc3nc4ccc(-c5ccc(S(C)(=O)=O)cc5)nc4s3)C3CC3)CC2)n1 (centres unmarked) [Compound 1040, 5-(4-(cyclopropyl((5-(4-(methylsulfonyl)phenyl)thiazolo[5,4-b]pyridin-2-yl)oxy)methyl)piperidin-1-yl)-3-isopropyl-1,2,4-oxadiazole]
51 | CC(C)OC(=O)N1CCC(C(C)Oc2nc3ccc(-c4ccc(S(C)(=O)=O)cc4)nc3s2)CC1 (centres unmarked) [Compound 1056, isopropyl 4-(1-((5-(4-(methylsulfonyl)phenyl)thiazolo[5,4-b]pyridin-2-yl)oxy)ethyl)piperidine-1-carboxylate]
40 | CC(C)c1noc(C2CCN(c3nc4ccc(-c5ccc(S(C)(=O)=O)nc5)nc4s3)CC2)n1 [Compound 1080, 3-isopropyl-5-(1-(5-(6-(methylsulfonyl)pyridin-3-yl)thiazolo[5,4-b]pyridin-2-yl)piperidin-4-yl)-1,2,4-oxadiazole]
65 | CC(C)c1noc(N2CCC(C(C)Oc3nc4ccc(-c5ccc(S(C)(=O)=O)c(F)c5)nc4s3)CC2)n1 (centres unmarked) [Compound 1100, 5-(4-(1-((5-(3-fluoro-4-(methylsulfonyl)phenyl)thiazolo[5,4-b]pyridin-2-yl)oxy)ethyl)piperidin-1-yl)-3-isopropyl-1,2,4-oxadiazole]
40 | CC(C)c1noc(N2CCC(C(C)Oc3nc4ccc(-c5ccnnc5)nc4s3)CC2)n1 (centres unmarked) [Compound 1134, 3-isopropyl-5-(4-(1-((5-(pyridazin-4-yl)thiazolo[5,4-b]pyridin-2-yl)oxy)ethyl)piperidin-1-yl)-1,2,4-oxadiazole]
39 | CC(C)c1noc(N2CCC(C(C)Oc3nc4ccc(-c5ccc(NS(C)(=O)=O)cc5)nc4s3)CC2)n1 (centres unmarked) [Compound 1074, N-(4-(2-(1-(1-(3-isopropyl-1,2,4-oxadiazol-5-yl)piperidin-4-yl)ethoxy)thiazolo[5,4-b]pyridin-5-yl)phenyl)methanesulfonamide]
38 | CC(C)c1noc(N2CCC(C(C)Oc3nc4ccc(-c5ccnc(Cl)c5)nc4s3)CC2)n1 (centres unmarked) [Compound 1132, 2-(1-(1-(3-isopropyl-1,2,4-oxadiazol-5-yl)piperidin-4-yl)ethoxy)-5-(2-chloropyridin-4-yl)thiazolo[5,4-b]pyridine]
9 | CC(C)c1noc(N2CCC([C@H](C)Oc3nc4ccc(-c5ccncc5)nc4s3)CC2)n1 [Compound 1092, (S)-3-isopropyl-5-(4-(1-((5-(pyridin-4-yl)thiazolo[5,4-b]pyridin-2-yl)oxy)ethyl)piperidin-1-yl)-1,2,4-oxadiazole]
